Measurements from paper PMC8597046, “Use of Mixture Dosing and Nonlinear Mixed Effect Modeling of Eight Environmental Contaminants in Rabbits to Improve Extrapolation Value of Toxicokinetic Data” (Environmental Health Perspectives, 2021).

Tests used:
[1] = TK assay, intravenous mixture dosing: serum concentrations and noncompartmental analysis (sparse data); conditions: female, rabbit, in vivo, iv; for AUC(0-inf) / Cmax / MRT / clearance / half-life / Vd: New Zealand white (INRA 1777 line); for concentration at 24.03 h / concentration at 24 h / concentration at 72 h / concentration at 72.03 h / concentration at 71.97 h / concentration at 168 h / concentration at 167.92 h / concentration at 0.67 h / concentration at 671.96 h / concentration at 0.77 h / concentration at 672 h / concentration at 0.6 h / concentration at 671.83 h / Serum concentration: New Zealand white; for concentration at 24.03 h / concentration at 24 h / concentration at 72 h / concentration at 72.03 h / concentration at 71.97 h / concentration at 168 h / concentration at 167.92 h / concentration at 0.67 h / concentration at 671.96 h / concentration at 0.77 h / concentration at 672 h / concentration at 0.6 h / concentration at 671.83 h: Serum concentration
Experimental: The experiment was carried out on thirty 10-wk old female New Zealand white rabbits (INRA 1777 line) weighing 2.37±0.14kg . […] Blood samples were taken at the designated time points post IV and oral administration: 15 min, 30 min, 1 h, 2 h, 4 h, 8 h, 12 h, 24 h, 3 d, 7 d, and 28 d from groups of 3 or 6 rabbits at each sampling time. Each rabbit was sampled 3 times and 3 rabbits were sampled at each sampling time, except at 30 min post administration, when 6 samples were collected to provide a sufficient blood volume for assaying the compounds. The doses and assay time points were selected to allow the calculation of TK parameters (Table 1) based on preliminary TK data. Residual concentrations of the compounds, and their possible evolution over time, were determined by sampling six entirely untreated rabbits during the TK study on the day of drug administrations, then 14 d and 28 d later.
The volume administered was adjusted to the animal’s body weight (BW) recorded the day before.
Intravenous administrations were performed via an indwelling catheter (22G Terumo, 0.9×25mm ) just after its insertion into an ear vein. […] For oral administrations, the mixture of all compounds ( 4mL/kg ) was deposited directly in the mouth of rabbits using a catheter (22G BD Insyte 22G, 0.9×25mm ). Prior to the study, the rabbits had been trained to gradually swallow water and then corn oil.
Blood samples were collected from the auricular artery using a 20 G needle ( 0.9×25mm ) and a dry tube. The first two blood samples were 8–10mL in volume, whereas a large volume (about 20mL ) was obtained antemortem immediately after electrical stunning (95LX rabbit stunner; Burdis), followed by exsanguination.
Serum concentration-time profiles of the different compounds were first analyzed using a noncompartmental approach (NCA) involving a sparse data option. Sparse data methodology consists of calculating TK parameters based on the mean profile of all the subjects in the dataset and is appropriate when a rich data series cannot be obtained, as in the present experiment ([FDA 1999]). The area under the concentration time curve ( AUC0−tlast ) and the area under the first moment curve ( AUMC0−tlast ) from dosing time ( t=0 ) to the time of the last measurable concentration were calculated using the linear trapezoidal rule after IV and oral dosing. The area under the serum concentration time curve from dosing time to infinity ( AUC0−inf ) was obtained by adding to AUC0−tlast the area extrapolated from the time of the last measurable concentration to infinity by dividing the last quantifiable serum concentration by the slope of the terminal phase ( λZ ), as estimated by linear regression using the best fit option of Phoenix®.
The clearance (CL) and apparent clearance (CL_F) were respectively estimated after IV and oral administrations by dividing the administered dose by the AUC0−inf calculated for each analyte.
The terminal half-life (HL) was estimated with Equation 1: (1) HL=0.69315/λZ where λz is the slope of the terminal phase.
The mean residence time (MRT) was estimated using Equation 3: (3) MRT=AUMCiv0−tlast /AUCiv0−tlast , where AUCMiv0−tlast and AUCiv0−tlast are the values of AUMC0−tlast and AUC0−tlast obtained after IV dosing.
The steady-state volume of distribution ( VSS ) was estimated using Equation 4: (4) VSS=CL×MRT, with CL and MRT as defined above.

[2] = Nonlinear mixed effect (NLME) compartmental modeling of merged IV and oral serum concentrations; conditions: for tvK12 (distribution rate constant) / tvK21 (distribution rate constant) / tvVc (volume of the central compartment) / tvKabs (rate constant of absorption): population primary parameter, typical value; for tvKabs (rate constant of absorption): MEHP after oral DEHP; for Volume(s) of the peripheral compartment: for PFOA first peripheral compartment
Description: A nonlinear mixed effect (NLME) modeling approach was used to analyze simultaneously all data obtained from the different rabbits after both IV and oral administrations and to provide robust estimates of the typical TK parameters.
The primary parameters of the model, namely the volume of distribution of the central compartment (V1), the first-order rate constants ( K10 , K12 , K21 , and Kabs plus K13 , K31 for PFOA) and the bioavailability (F) and their associated precisions [standard error (SE)] were estimated by minimizing an objective function value (OFV) expressed as minus twice the log of the likelihood estimation ( −2LL ). […] Marginal likelihood was approximated by using the Laplacian engine by default and, when this engine was unable to determine the SE of the estimate, the Quasi-Random Parametric Expectation Maximization (QRPEM) was selected.
Between subject variability (BSV) of the parameters was measured using the exponential model θparameter_i=θtv_parameter×exp (ηi), where θparameter_i is the parameter estimated for the ith individual, θtv_parameter is the typical population value of the parameter, and ηi is the deviation associated with the ith individual from the corresponding value of the parameter at the population level.
The distribution of ηi was assumed to be normal with a mean of 0 and a variance ω² . BSV was reported as a coefficient of variation (CV) in the original scale CV(%)=100× exp (ω^2)−1 .
The residual variance was modeled using a combined additive and proportional error model Cobsij=Cpredij(1 + ε1ij) + ε2ij, where Cobsij and Cpredij are respectively the jth observed and predicted concentrations for the ith individual, and ε1ij and ε2ij are the multiplicative and additive residual errors.
Secondary parameters were calculated from the population primary parameters.
The clearance values (CL) were estimated using Equation 5: (5) CL=K10×V1, where V1 is the volume of the central compartment and K10 is the elimination rate constant from the central compartment.
The volume of the peripheral compartment (V2) was estimated with Equation 6: (6) V2=V1×(K12/K21), where K12 and K21 are the distribution rate constants between the central and the peripheral compartments.
The clearance of distribution (Q) was estimated using Equation 7: (7) Q=K12×V1, with […] and K12 as defined above.
The volume of distribution associated with the terminal phase was estimated with Equation 10: (10) VZ=CL/λZ, with λZ as defined above.
The AUC was computed as a secondary parameter using Equation 11: (11) AUC=Dose/CL.
The terminal half-life was estimated with Equation 1, as previously described.

[3] = female, New Zealand white (INRA 1777 line), rabbit, in vivo
[4] = female, New Zealand white, rabbit, in vivo
[5] = female, New Zealand white, rabbit, in vivo, iv
[6] = female, New Zealand white, rabbit, in vivo, po
[7] = population secondary parameter, mean

Cl[C@H]1[C@H](Cl)[C@@H](Cl)[C@H](Cl)[C@@H](Cl)[C@@H]1Cl [β-HCH, β-hexachlorocyclohexane]
AUC(0-inf) [1]: 26.7 µM·h
Cmax [1]: 320 nM
MRT [1]: 22.6 days
clearance [1]: 0.95 mL/min/kg
half-life [1]: 13.8 days
Vd ([1]; VSS, IV mixture dosing, NCA, n=12): 30.9 L/kg
Vd ([1]; VZ, IV mixture dosing, NCA, n=12): 27.1 L/kg
concentration at 24.03 h ([1]; rabbit 1, 24.03 h): 62 nM
concentration at 24 h ([1]; rabbit 2, […]): 50 nM
concentration at 24 h ([1]; rabbit 3, […]): 76 nM
concentration at 72 h ([1]; rabbit 4, 72.00 h): 36 nM
concentration at 72.03 h ([1]; rabbit 5, 72.03 h): 34 nM
concentration at 71.97 h ([1]; rabbit 6, 71.97 h): 29 nM
concentration at 168 h ([1]; rabbit 7, 168.00 h): 20 nM
concentration at 167.92 h ([1]; rabbit 8, 167.92 h): 18 nM
concentration at 168 h ([1]; rabbit 9, 168.00 h): 25 nM
concentration at 0.67 h ([1]; rabbit 10, 0.67 h): 320 nM
concentration at 671.96 h ([1]; rabbit 10, 671.96 h): 6.5 nM
concentration at 0.77 h ([1]; rabbit 11, 0.77 h): 250 nM
concentration at 672 h ([1]; rabbit 11, 672.00 h): 21 nM
concentration at 0.6 h ([1]; rabbit 12, 0.60 h): 270 nM
concentration at 671.83 h ([1]; rabbit 12, 671.83 h): 9.6 nM
Vd [2, 3]: 33 L/kg
bioavailability ([2]; female, New Zealand white (INRA 1777 line), rabbit, in vivo, po, Oral bioavailability (F), NLME model): > 85%
k el ([2]; female, New Zealand white (INRA 1777 line), rabbit, serum, other: intravenous and oral data merged): 4.69e-06 s⁻¹
MRT [2, 4]: 15.8 days
half-life [2, 4]: 13.2 days
clearance ([2]; female, New Zealand white, rabbit, in vivo, population secondary parameter, mean): 1.45 mL/min/kg
AUC [2, 5]: 20 µM·h
AUC [2, 6]: 87 µM·h
bioavailability ([2]; female, New Zealand white, rabbit, in vivo, po, Bioavailability, population secondary parameter, mean, as fraction): 88%
AUCVO/dose ([2]; oral dosing): 12.5 μmol×h/L per μmol/kg BW
tvK12 (distribution rate constant) ([2]; mean): 0.0593 h⁻¹
tvK21 (distribution rate constant) ([2]; mean): 0.0110 h⁻¹
tvVc (volume of the central compartment) ([2]; mean): 5.1310 L/kg
tvKabs (rate constant of absorption) ([2]; mean): 0.0955 h⁻¹
Volume(s) of the peripheral compartment [2, 7]: 28 L/kg

ClC(Cl)=C(c1ccc(Cl)cc1)c1ccc(Cl)cc1 [pp′DDE, 1,1-Dichloro-2,2-bis(p-chlorophenyl)ethylene]
AUC(0-inf) [1]: 19.8 µM·h
Cmax [1]: 900 nM
MRT [1]: 8.46 days
clearance [1]: 1.83 mL/min/kg
half-life [1]: 9.92 days
Vd ([1]; VSS): 23.2 L/kg
Vd ([1]; VZ): 39.2 L/kg
Serum concentration ([1]; 24 h): 60 nM
Serum concentration ([1]; 168 h): 15 nM
concentration at 0.6 h [1]: 600 nM
concentration at 0.67 h [1]: 900 nM
concentration at 0.77 h [1]: 640 nM
concentration at 24 h [1]: 65 nM
concentration at 24.03 h [1]: 47 nM
concentration at 71.97 h [1]: 27 nM
concentration at 72 h [1]: 26 nM
concentration at 72.03 h [1]: 27 nM
concentration at 167.92 h [1]: 11 nM
concentration at 168 h [1]: 19 nM
concentration at 671.83 h [1]: 3.7 nM
concentration at 671.96 h [1]: 2.8 nM
concentration at 672 h [1]: 6.8 nM
Vd [2, 3]: 35 L/kg
k el [2, 3]: 1.33e-05 s⁻¹
bioavailability ([2]; female, New Zealand white (INRA 1777 line), rabbit, in vivo, po, Oral bioavailability (F)): 72%
MRT [2, 4]: 10.9 days
half-life [2, 4]: 11.3 days
clearance [2, 4]: 2.17 mL/min/kg
AUC [2, 5]: 17 µM·h
AUC [2, 6]: 77 µM·h
AUCVO/dose [2, 6]: 5.35 μmol×h/L per μmol/kg BW
bioavailability ([2]; female, New Zealand white, rabbit, in vivo, po, Bioavailability): 72%
tvK12 (distribution rate constant) ([2]; mean): 0.08353 h⁻¹
tvK21 (distribution rate constant) ([2]; mean): 0.00729 h⁻¹
tvVc (volume of the central compartment) ([2]; mean): 2.821 L/kg
tvKabs (rate constant of absorption) ([2]; mean): 0.01994 h⁻¹
Volume(s) of the peripheral compartment [2, 7]: 32 L/kg
